Source: US11384381B2, “Reaction accelerating agent” (Kikkoman Corporation, priority 2016, dated 2022)

Key:
CFP-DH4 (A1cOX) = assay: Acceleration of HbA1c detection reaction with small amount of A1cOX (Example 5); format: biochemical; details: 0.04% (w/v) compound, 1.1 mg/ml CFP-DH4; for effect of accelerating the HbA1c detection reaction: versus not added; for Degree of progression of reaction (%) after 7.5 minutes / Degree of progression of reaction (%) after 10 minutes: HbA1c detection reaction, ΔA/ΔA100%; for Degree of progression of reaction (%) after 7.5 minutes: 2.5 minutes after addition of second reagent, not added: 51; for Degree of progression of reaction (%) after 10 minutes: 5 minutes after addition of second reagent, not added: 73
Description: Next, in this Example, the degree of acceleration of HbA1c detection reaction by the compound of the present invention was determined using a small amount of A1cOX.
A reagent for HbA1c measurement having the following composition was prepared, and the measurement of HbA1c was carried out using Bio Majesty JCA-BM1650 (manufactured by JEOL Ltd.).
Blood cells (10.4% HbA1c (NGSP value))
30 mM MOPS-NaOH buffer solution, pH 6.5
0.2% (w/v) n-dodecyl-3-D-maltoside (manufactured by Dojindo Laboratories)
(§1) 10 U/ml peroxidase PEO-301 (Toyobo Co., Ltd.)
0.023 mM 10-(carboxymethylaminocarbonyl)-3,7-bis(dimethylamino)phenothiazine sodium (DA-67, manufactured by Wako Pure Chemical Industries, Ltd.)
0.04% (w/v) of the compound of Comparative Example 2, any one compound of the present invention, or compound-free (Comparative Example 1) ion-exchange water as shown in Table 2
10 mM MOPS-NaOH buffer solution, pH 6.5
1.1 mg/ml CFP-DH4 (A cOX)
8 μl of the sample diluted 51-fold with ion-exchange water was added to 96 μl of the first reagent, and the mixture was incubated at 37° C. for 5 minutes. Then, 24 μl of the second reagent-B was added thereto, and the quantitative reaction of hydrogen peroxide resulting from the oxidation of the β-chain amino terminus of HbA1c was allowed to progress at 37° C. for 5 minutes. The absorbance ([…] and A751) of the reaction solution for light at wavelengths of 694 nm and 751 nm was measured over time for 10 minutes after the mixing of the diluted sample with the first reagent to determine the value of subtraction of A751 from A694, i.e., the value A694/751. Subsequently, ΔA was calculated by subtracting, from A694/751, the value of (104/128) times A694/751 4.8 minutes after the mixing of the diluted sample with the first reagent. Incidentally, […] after the mixing of the diluted sample with the first reagent represents the time immediately before the addition of the second reagent-B.
(§2) Next, ΔA calculated in this Example was divided by ΔA100% defined in Example 4 to calculate the degree of progression of HbA1c detection reaction. The degree of progression of HbA1c detection reaction 7.5 and 10 minutes after the mixing of the diluted sample with the first reagent (in other words, 2.5 and 5 minutes after the addition of the second reagent-B) is shown in Table 2.

[1] = system: sarcosine oxidase (SOD-TE); assay: Acceleration of sarcosine detection reaction with small amount of sarcosine oxidase (Example 11); format: biochemical; details: 0.04% (w/v) compound, 12.3 U/ml SOD-TE; for effect of accelerating sarcosine detection reaction: versus not added; for Degree of progression of reaction (%) after 7.5 minutes / Degree of progression of reaction (%) after 10 minutes: sarcosine detection reaction, ΔA/ΔA100%; for Degree of progression of reaction (%) after 7.5 minutes: 2.5 minutes after addition of second reagent, not added: 60; for Degree of progression of reaction (%) after 10 minutes: 5 minutes after addition of second reagent, not added: 82
Description: Next, in this Example, the degree of acceleration of sarcosine detection reaction by the compound of the present invention was determined using a small amount of sarcosine oxidase.
A reagent for sarcosine measurement having the following composition was prepared, and the measurement of sarcosine was carried out using Bio Majesty JCA-BM1650 (manufactured by JEOL Ltd.).
32 μM sarcosine (manufactured by Wako Pure Chemical Industries, Ltd.)
30 mM MOPS-NaOH buffer solution, pH 8.0
0.2% (v/v) NP-10 (manufactured by HELM)
as §1
0.023 mM 10-(carboxymethylaminocarbonyl)-3,7-bis(dimethylamino)phenothiazine sodium
(DA-67, manufactured by Wako Pure Chemical Industries, Ltd.)
0.04% (w/v) of the compound of Comparative Example 2, any one compound of the present invention, or compound-free (Comparative Example 1) ion-exchange water as shown in Table 1
10 mM MOPS-NaOH buffer solution, pH 8.0
12.3 U/ml SOD-TE (manufactured by Kikkoman Biochemifa Company)
8 μl of the sample was added to […] of the first reagent-D, and the mixture was incubated at 37° C. for 5 minutes. Then, 24 μl of the second reagent-H was added thereto, and the quantitative reaction of hydrogen peroxide resulting from the oxidation of sarcosine was allowed to progress at 37° C. for 5 minutes. The absorbance (A694 and A751) of the reaction solution for light at wavelengths of 694 nm and 751 nm was measured over time for 10 minutes after the mixing of the sample with the first reagent-D to determine the value of subtraction of A751 from A694, i.e., the value A694/751. Subsequently, ΔA was calculated by subtracting, from A694/751, the value of (104/128) times A694/751 4.8 minutes after the mixing of the sample with the first reagent-D. Incidentally, 5 minutes after the mixing of the sample with the first reagent-D represents the time immediately before the addition of the second reagent-H.
as §2, with “Example 10” for “Example 4”, “of sarcosine” for “of HbA1c”, “the” for “the diluted”, “first reagent-D” for “first reagent”, “second reagent-H)” for “second reagent-B)”, “Table 8.” for “Table 2.”

Molecule	effect of accelerating the HbA1c detection reaction (CFP-DH4 (A1cOX))	Degree of progression of reaction (%) after 7.5 minutes (CFP-DH4 (A1cOX))	Degree of progression of reaction (%) after 10 minutes (CFP-DH4 (A1cOX))	effect of accelerating sarcosine detection reaction [1]	Degree of progression of reaction (%) after 7.5 minutes [1]	Degree of progression of reaction (%) after 10 minutes [1]
Cc1nn(-c2cc(S(=O)(=O)[O-])ccc2Cl)c(O)c1N=Nc1ccccc1.[Na+] [Acid Yellow 34]	effect of accelerating the HbA1c detection reaction	75%	95%	–	–	–
COc1cc(N=Nc2ccc(N)cc2)c(C)cc1N [Disperse Diazo Black 3BF]	–	–	–	effect of accelerating sarcosine detection reaction	63%	84%
O=C(O)c1cc(N=Nc2ccc3cc(S(=O)(=O)O)ccc3c2)ccc1O.[Na] [Chrome Yellow]	effect of accelerating the HbA1c detection reaction	53%	77%	effect of accelerating sarcosine detection reaction	65%	87%
COc1cc(N=Nc2cccc(S(=O)(=O)[O-])c2)ccc1NC(=O)Nc1ccc(N=Nc2ccc(O)c(C(=O)[O-])c2)cc1.[Na+].[Na+] [Direct Yellow 44]	effect of accelerating the HbA1c detection reaction	77%	96%	effect of accelerating sarcosine detection reaction	68%	89%
O=S(=O)([O-])c1cccc(N=Nc2ccc(Nc3ccccc3)cc2)c1.[Na+] [Acid Yellow 36]	effect of accelerating the HbA1c detection reaction	53%	81%	–	–	–
Acid Red 151	effect of accelerating the HbA1c detection reaction	55%	80%	effect of accelerating sarcosine detection reaction	68%	89%
Xylene Fast Yellow 2G	effect of accelerating the HbA1c detection reaction	58%	83%	effect of accelerating sarcosine detection reaction	64%	86%
O=C([O-])c1cc(N=Nc2ccc([N+](=O)[O-])cc2)ccc1O.[Na+] [Mordant Orange 1]	effect of accelerating the HbA1c detection reaction	80%	94%	effect of accelerating sarcosine detection reaction	67%	88%
O=C([O-])c1cc(N=Nc2cccc([N+](=O)[O-])c2)ccc1O.[Na+] [Alizarin Yellow GG]	effect of accelerating the HbA1c detection reaction	76%	91%	effect of accelerating sarcosine detection reaction	64%	86%
